Test system: SH-SY5Y cells
Experiment: Pretreatment with peptides before MG stress, MTT cell viability
Type: cell-based, human
Details: 4 h pretreatment 1 × 10^−7 M, then 1.2 mM MG 16 h, n = 3, octuplicates
Procedure: Figure 5 PrRP31 and its analog increased cell viability during the MG-induced stress. Pre-treatment for 4 h with PrRP31 and palm^11-PrRP31 at a concentration of: (a) 1 × 10^−5 M; or (b) 1 × 10^−7 M, followed by exposure to 1.2 mM MG for 16 h in SH-SY5Y cells. Pre-treatment for 4 h with PrRP31 and palm^11-PrRP31 at a concentration of: (c) 1 × 10^−5 M; (d) 1 × 10^−7 M in SH-SY5Y cells; or (e) 1 × 10^−5 M in rat primary neuronal culture, followed by exposure to 0.6 mM MG for 16 h in SH-SY5Y cells. MG toxicity was measured with MTT assay. Data are presented as the means ± SEM as a percentage of control cells treated with vehicle analyzed by a Student’s t-test vs. 0.6 mM MG # p < 0.5, ## p < 0.01, ### p < 0.001, #### p < 0.0001 (n = 3, each sample in octuplicates). Control vs. 0.6 mM MG analyzed by a Student´s t-test, * p < 0.5, ** p < 0.01.
The MTT test was used to measure cell viability. The MTT reagent was dissolved in RPMI-1640 without phenol red. Cells were incubated for 2 h with a 10% solution of MTT at 37 °C. Living cells converted soluble MTT to insoluble formazan, which was subsequently dissolved in DMSO. The absorbance was measured at a wavelength of 560 nm.
For this assay, cells were cultured in 96-well plates at a density of 40,000 cells per well. The growth medium was exchanged for serum-free DMEM 16 h before the experiment. […]

CC[C@H](C)[C@H](NC(=O)CNC(=O)[C@H](CCCNC(=N)N)NC(=O)[C@H](CO)NC(=O)[C@H](C)NC(=O)[C@H](Cc1ccc(O)cc1)NC(=O)[C@H](Cc1c[nH]c2ccccc12)NC(=O)[C@H](C)NC(=O)[C@@H]1CCCN1C(=O)[C@H](CC(N)=O)NC(=O)[C@@H](NC(=O)[C@H](CC(=O)O)NC(=O)[C@@H]1CCCN1C(=O)[C@@H](NC(=O)[C@H](CCCNC(=N)N)NC(=O)[C@@H](NC(=O)[C@H](CCC(=O)O)NC(=O)[C@H](CCSC)NC(=O)[C@H](CO)NC(=O)[C@H](Cc1c[nH]cn1)NC(=O)[C@H](CCCNC(=N)N)NC(=O)[C@H](Cc1c[nH]cn1)NC(=O)[C@@H](NC(=O)[C@H](CCCNC(=N)N)NC(=O)[C@@H](N)CO)[C@@H](C)O)[C@@H](C)CC)[C@@H](C)O)[C@@H](C)CC)C(=O)N[C@@H](CCCNC(=N)N)C(=O)N1CCC[C@H]1C(=O)N[C@H](C(=O)NCC(=O)N[C@@H](CCCNC(=N)N)C(=O)N[C@@H](Cc1ccccc1)C(N)=O)C(C)C [PrRP31]
cell viability (% of control cells): not

Source: PMC7503370, “Cellular Signaling and Anti-Apoptotic Effects of Prolactin-Releasing Peptide and Its Analog on SH-SY5Y Cells” (International Journal of Molecular Sciences, 2020)
